These results are taken from publication PMC7918612, “Novel Inhibitors of Nicotinamide-N-Methyltransferase for the Treatment of Metabolic Disorders” (Molecules, 2021).

The test system of series [1] is mice with diet-induced obesity. The note with it: cited from earlier work.
Series [2] deals with T1, mouse NNMT (Mus musculus, UniProt O55239).
T1 sequence (O55239 1-264): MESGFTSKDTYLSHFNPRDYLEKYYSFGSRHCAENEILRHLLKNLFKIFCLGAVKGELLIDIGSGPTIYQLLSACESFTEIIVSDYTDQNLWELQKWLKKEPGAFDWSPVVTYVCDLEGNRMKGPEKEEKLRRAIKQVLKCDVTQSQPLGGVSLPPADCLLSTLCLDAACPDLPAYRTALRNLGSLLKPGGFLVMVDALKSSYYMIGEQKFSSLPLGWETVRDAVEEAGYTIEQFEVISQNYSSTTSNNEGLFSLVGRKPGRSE
Briefly: Fluorescence-based NNMT enzymatic assay (mouse enzyme). In kind it is biochemical. The note with it: for pIC50: read-out: mNNMT IC50. How it is done: (§1) Experimental Procedures S2: Fluorescence-based NNMT enzymatic assay
(§2) NNMT activity was measured by fluorescence based assay. The product MNA formed in the reaction reacts with acetophenone in the presence of KOH and formic acid and forms a fluorescent product 2, 7- naphthyridine. The fluorescence intensity measured with excitation at 375nm and emission at 430nm. Inhibitors were screened using human, mouse and monkey NNMT enzymes. Different concentrations of inhibitors were pre-incubated along with 5ng/well of human NNMT enzyme and 3.42ng/well of mouse NNMT enzyme for 30 minutes at room temperature. Reaction was initiated by addition of SAM and nicotinamide mixture (7µM, 20µM, 8µM SAM and 6µM, 20µM, 9µM nicotinamide for human, mouse and monkey NNMT assays respectively) and incubated for 60 minutes at 37°C. The final assay reaction mixture contained a buffer of 100mM Tris Hcl pH 7.5, 0.04% BSA, 2mM Dithiothreitol and 1% DMSO. The reaction was terminated by addition of Ethanol: Acetophenone mix (75% ethanol: 25% Acetophenone) and 5M potassium Hydroxide prepared with 50% Ethanol. The reaction was incubated for 15 minutes followed by addition of 100µl of 60% formic acid and further incubation for 60 minutes at room temperature. A fluorescent product 2, 7- naphthyridine was measured in a Tecan reader with excitation at 375nm and emission at 430nm. The IC50 values were determined by fitting the inhibition curves (percent inhibition versus inhibitor concentration) using a four parametric sigmoidal dose response in graph pad prism. […]

The target of series [3] is T2, human NNMT (Homo sapiens, UniProt P40261).
T2 sequence (P40261 1-264): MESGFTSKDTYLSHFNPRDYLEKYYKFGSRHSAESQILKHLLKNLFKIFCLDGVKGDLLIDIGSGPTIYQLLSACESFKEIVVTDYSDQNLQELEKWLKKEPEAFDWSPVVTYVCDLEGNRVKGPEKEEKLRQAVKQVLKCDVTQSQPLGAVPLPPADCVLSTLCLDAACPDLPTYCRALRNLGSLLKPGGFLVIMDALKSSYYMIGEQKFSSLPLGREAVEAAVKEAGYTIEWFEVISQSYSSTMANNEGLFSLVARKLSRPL
Briefly: Fluorescence-based NNMT enzymatic assay (human enzyme). It is filed as biochemical. Conditions: for pIC50: read-out: hNNMT IC50; for reduction in potency on hNNMT: relative to (1). How it is done:
as §1, §2

The nature of series [4]: Metabolic stability in mouse liver microsomes. It is filed as in vitro ADME. The note with it: for remaining at 1 h: mouse liver microsomes, read-out: MLM % Remaining at 1 h; for MLM: Table 3, mouse liver microsome data, head HLM/MLM without unit. How it is done:
(§3) Experimental Procedures S3: Metabolic stability in human and mouse liver microsomes
(§4) These profiling studies were carried out as described in Mullangi R. et. al. Preclinical assessment of
(§5) ulixertinib, a novel ERK1/2 inhibitor, ADMET & DMPK, 2017, 212-223;

Series [5] is described as follows: Metabolic stability in rat liver microsomes. It is filed as in vitro ADME. Conditions: read-out: RLM % Remaining at 1 h.
The nature of series [6]: Metabolic stability in human liver microsomes. It is filed as in vitro ADME. Also on record: HLM: unit not given beside the values. The note with it: for remaining at 1 h: human liver microsomes, read-out: HLM % Remaining at 1 h; for HLM: Table 3, human liver microsome data, head HLM/MLM without unit. The method, then: as §3, §4, §5

pIC50: −log10 of the molar value. Read-outs that look alike come from different tables or passages of the source.

Take 5-amino-1-methylquinoline: in series [1], the body weight result was “reduced body weight”, the glucose tolerance result is given as “improved glucose tolerance” and the insulin sensitivity result was “higher insulin sensitivity”.
In the case of `COc1ccc(-c2cn(C[C@](C)(O)C(=O)N3CCN(c4cccc5cnccc45)CC3)nc2C)cc1` (stereo in doubt) [Compound 12], in series [2], the “mNNMT potency, in words” value is given as “nanomolar potency” and the pIC50 is 9.10. Besides, in series [3], the “hNNMT potency, in words” value is given as “nanomolar potency” and the pIC50 was 8.10.
As to `COc1ccc(C(N)=O)cn1` [6-methoxynicotinamide], in series [1], the body weight result was “reduced body weight”, the glucose tolerance result was “improved glucose tolerance” and the insulin sensitivity entry is given as “higher insulin sensitivity”.
Regarding `Cc1nn(CC(C)(O)C(=O)N2CCN(c3cccc4cnccc34)CC2)cc1-c1ccccc1` (stereo not shown) [Compound 1], the pIC50 in series [2] is 6.08; in series [3], 6.59.
For the compound `CCn1c(=N)n2c3c(cccc31)CCC2` [Compound 3], the values for the pIC50 in series [2] and in series [3] were 6.30 and 6.70, respectively. Also, in series [3] (competition with substrates nicotinamide / SAM), the mode of inhibition result is given as “competitive inhibitors either of nicotinamide alone”.
Turning to `Cc1nn(CCC(=O)N2CCN(c3cccc4cnccc34)CC2)cc1-c1ccccc1` [Compound 6], the pIC50 in series [2] was 5.66. For the same compound, the “reduction in potency on mouse NMMT (mNNMT)” value in series [2] (relative to (1)) is listed as 2.5 fold. In addition, in series [3], the pIC50 was 5.78 and the “reduction in potency on hNNMT” value was “six-fold reduction”.
`Cc1nn(CC(C)(O)C(=O)N2CCN(c3ccc4cnccc4c3)CC2)cc1-c1cccc(F)c1` (stereo not shown) [Compound 8]: the fraction remaining at 1 h in series [4], in series [5] and in series [6] was < 5% throughout. The “hNNMT potency, in words” value in series [3] is on record as “completely lost hNNMT activity”. Also, the pIC50 in series [3] is < 5.00.
Take `Cc1nn(CC(O)C(=O)N2CCN(c3cccc4cnccc34)CC2)cc1-c1cccc(F)c1.O=C(O)C(F)(F)F` (stereo not shown) [Compound 9]: the pIC50 was 5.61 in series [2] and 6.06 in series [3]. Also, in series [3], the “reduction in potency on hNNMT” value is “three-fold reduction”.
Regarding `Cc1nn(CC(C)(O)C(=O)N2CCN(c3cccc4cnccc34)CC2)cc1-c1ccc(F)c(F)c1` (stereo not shown) [Compound 10], the amount remaining at 1 h in series [4] is < 5%; in series [6], 7%. Also, the pIC50 is < 5.52 in series [2] and 6.54 in series [3].
On to `Cc1nn(CC(C)(O)C(=O)N2CCN(c3c(F)ccc4cnccc34)CC2)cc1-c1cccc(F)c1` (stereo not shown) [Compound 11], for which the share remaining at 1 h in series [4] and in series [6] was < 5% in each case. For the same compound, the “mNNMT potency, in words” value in series [2] is “retains potency”. The pIC50 was 5.73 in series [2] and 6.70 in series [3]. In addition, in series [3], the “hNNMT potency, in words” value is “retains potency”.
Take `Cc1nn(CC(C)(O)C(=O)N2CCN(c3c(C)sc4cnccc34)CC2)cc1-c1cccc(F)c1` (stereo not shown) [Compound 14]: the share remaining at 1 h in series [4] and in series [6] was < 5% each time. For the same compound, the pIC50 in series [2] is 5.46; in series [3] it was 6.31.
As to `Cc1nn(CC(C)(O)C(=O)N2CCN(c3cccc4cnncc34)CC2)cc1-c1cccc(F)c1` (stereo not shown) [Compound 15], the amount remaining at 1 h in series [4], in series [5] and in series [6] was < 5% each time. In addition, the pIC50 was 5.29 in series [2] and 6.10 in series [3].
Regarding `Cc1nn(CC(C)(O)C(=O)N2CCN(c3cccc4cncnc34)CC2)cc1-c1cccc(F)c1` (stereo not shown) [Compound 16], the amount remaining at 1 h in series [4], in series [5] and in series [6] was < 5% in each case. Further, the pIC50 in series [2] was 5.79; in series [3], 5.96.
For `Cc1nn(CC(C)(O)C(=O)N2CCN(c3cnc4cnccn34)CC2)cc1-c1cccc(F)c1` (stereo not shown) [Compound 17], the share remaining at 1 h was 8% in series [4], < 5% in series [5] and 27% in series [6]. Further, the pIC50 in series [3] is < 5.52.
The corresponding values for `Cc1nn(CC(C)(O)C(=O)N2CCN(c3ccc4c(cnn4Cc4ccccc4)c3)CC2)cc1-c1cccc(F)c1` (stereo not shown) [Compound 18] are 30%, < 5%, 35% and < 4.52.
Turning to `Cc1nn(CC(C)(O)C(=O)N2CCN(c3ccc4[nH]ncc4c3)CC2)cc1-c1cccc(F)c1` (stereo not shown) [Compound 19], in series [3], the pIC50 was < 5.00.
Take `Cc1nn(CC(C)(O)C(=O)N2CCN(c3cccc4[nH]ncc34)CC2)cc1-c1cccc(F)c1` (stereo not shown) [Compound 20]: the share remaining at 1 h in series [4] was < 5%; in series [6] it was 18%. Moreover, the pIC50 in series [3] was < 5.52.
For `Cc1nn(CC(C)(O)C(=O)N2CCN(c3cccc4c(=O)[nH]ccc34)CC2)cc1-c1cccc(F)c1` (stereo not shown) [Compound 22], the amount remaining at 1 h was < 5% in series [4], 31% in series [5] and 16% in series [6]. Further, in series [3], the “hNNMT potency, in words” value was “not active”. Further, in series [3], the pIC50 is < 4.52.
For the compound `Cc1nn(CC(C)(O)C(=O)N2CCN(c3cccc4c3OCC(=O)N4)CC2)cc1-c1cccc(F)c1` (stereo not shown) [Compound 24], the amount remaining at 1 h in series [4] and in series [6] was < 5% in each case. For the same compound, the pIC50 in series [3] was < 5.00.
Turning to `Cc1nn(CC(C)(O)C(=O)N2CCC(c3cccc4[nH]c(=O)ccc34)CC2)cc1-c1cccc(F)c1` (stereo not shown) [Compound 25], the MLM in series [4] is < 5. Further, the pIC50 in series [2] (Table 3) was < 5.52; in series [3] (Table 3) it was 6.12. Moreover, the “reduction in mNNMT potency” value in series [2] (compared to (21)) was “two-fold reduction”. Also, in series [6], the HLM was 17.
As to `Cc1nn(CC(C)(O)C(=O)N2CCC(C3=CC=CC4NC(=O)C=CC34)C2)cc1-c1cccc(F)c1` (stereo not shown) [Compound 26], the MLM in series [4] is < 5. The “hNNMT potency, in words” value in series [3] is recorded as “substantial loss of potency”. In addition, in series [3] (Table 3), the pIC50 was < 5.00. In series [6], this compound gave an HLM of 12.
In the case of `Cc1nn(CC(C)(O)C(=O)N2CC(c3cccc4[nH]c(=O)ccc34)C2)cc1-c1cccc(F)c1` (stereo not shown) [Compound 27], the “hNNMT potency, in words” value in series [3] is on record as “substantial loss of potency”. Besides, the pIC50 in series [3] (Table 3) is < 4.52.
Take `Cc1nn(CC(C)(O)C(=O)N2CCCN(c3cccc4[nH]c(=O)ccc34)CC2)cc1-c1cccc(F)c1` (stereo not shown) [Compound 28]: the pIC50 in series [2] (Table 3) was < 4.52; in series [3] (Table 3), < 5.52. Moreover, in series [3], the “hNNMT potency, in words” value is “substantial loss of potency”.
For the compound `Cc1nn(CC(C)(O)C(=O)N2CC(c3cccc4cnccc34)C2)cc1-c1cccc(F)c1` (stereo not shown) [Compound 29], the MLM in series [4] is reported as <5/<5. In addition, the pIC50 in series [3] (Table 3) was < 4.52. In addition, in series [6], the HLM was <5/<5.
Regarding `Cc1nn(CC(C)(O)C(=O)N2CCC(O)(c3cccc4[nH]c(=O)ccc34)CC2)cc1-c1cccc(F)c1` (stereo not shown) [Compound 30], the MLM in series [4] is recorded as <5/<5. Moreover, in series [3], the “hNNMT potency, in words” value was “inactive”. The pIC50 in series [3] (Table 3) was < 5.00. The HLM in series [6] is <5/<5.
Take `Cc1nn(CC(C)(O)C(=O)N2CCC(O)(c3cccc4c[n+]([O-])ccc34)CC2)cc1-c1cccc(F)c1` (stereo not shown) [Compound 32]: the MLM in series [4] is given as 32. Besides, the “metabolic stability, in words” value in series [4] (mice) and in series [6] (humans) was “improved metabolic stability” throughout. For the same compound, the “hNNMT potency, in words” value in series [3] is given as “completely lost NNMT inhibition”. In series [3] (Table 3), the pIC50 is < 4.52. Also, in series [6], the HLM worked out at 72.
`CC(O)(C/N=c1/sc2cccc3c2n1CCC3)C(=O)N1CCN(c2cccc3cnccc23)CC1` (stereo not shown) [Compound 33]: the pIC50 in series [2] was 5.52; in series [3] it was 5.60.
